# Assay results from ChEMBL document CHEMBL2413072, “Synthesis and in vitro anticancer studies of novel C-2 arylidene congeners of lantadenes” (2013).
# Assays:
# Format in all cases: functional
# [1] = Growth inhibition of human NCI-ADR-RES cells assessed as cell growth at 10^-6 M by sulforhodamine B assay; details: read-out: Activity
# NCI-H322M [2] = assay: Growth inhibition of human NCI-H322M cells assessed as cell growth at 10^-7 M by sulforhodamine B assay; details: read-out: Activity
# HOP-92 = assay: Growth inhibition of human HOP92 cells assessed as cell growth at 10^-8 M by sulforhodamine B assay; details: read-out: Activity
# T47D = assay: Growth inhibition of human T47D cells assessed as cell growth at 10^-8 M by sulforhodamine B assay; details: read-out: Activity
# CAKI-1 = assay: Growth inhibition of human CAKI-1 cells by sulforhodamine B assay
# MDA-MB-468 [3] = assay: Growth inhibition of human MDA-MB-468 cells by sulforhodamine B assay
# ACHN = assay: Growth inhibition of human ACHN cells by sulforhodamine B assay
# OVCAR-3 = assay: Growth inhibition of human OVCAR3 cells assessed as cell growth at 10^-6 M by sulforhodamine B assay; details: read-out: Activity
# SK-MEL-28 = assay: Growth inhibition of human SK-MEL-28 cells assessed as cell growth at 10^-6 M by sulforhodamine B assay; details: read-out: Activity
# UO-31 = assay: Growth inhibition of human UO31 cells assessed as cell growth at 10^-4 M by sulforhodamine B assay; details: read-out: Activity
# SW-620 [4] = assay: Growth inhibition of human SW620 cells assessed as cell growth at 10^-4 M by sulforhodamine B assay; details: read-out: Activity
# 786-0 = assay: Growth inhibition of human 786-0 cells by sulforhodamine B assay
# PC-3 = assay: Growth inhibition of human PC3 cells assessed as cell growth at 10^-7 M by sulforhodamine B assay; details: read-out: Activity
# COLO 205 = assay: Growth inhibition of human COLO205 cells assessed as cell growth at 10^-4 M by sulforhodamine B assay; details: read-out: Activity
# NCI-H322M [5] = assay: Growth inhibition of human NCI-H322M cells by sulforhodamine B assay
# MDA-MB-468 [6] = assay: Growth inhibition of human MDA-MB-468 cells assessed as cell growth at 10^-7 M by sulforhodamine B assay; details: read-out: Activity
# BT-549 [7] = assay: Growth inhibition of human BT549 cells assessed as cell growth at 10^-7 M by sulforhodamine B assay; details: read-out: Activity
# MDA-MB-435 [8] = assay: Growth inhibition of human MDA-MB-435 cells assessed as cell growth at 10^-7 M by sulforhodamine B assay; details: read-out: Activity
# SF-539 = assay: Growth inhibition of human SF539 cells assessed as cell growth at 10^-4 M by sulforhodamine B assay; details: read-out: Activity
# A549 = assay: Growth inhibition of human A549/ATCC cells assessed as cell growth at 10^-6 M by sulforhodamine B assay; details: read-out: Activity
# LOX IMVI [9] = assay: Growth inhibition of human LOXIMVI cells assessed as cell growth at 10^-4 M by sulforhodamine B assay; details: read-out: Activity
# KM12 = assay: Growth inhibition of human KM12 cells assessed as cell growth at 10^-8 M by sulforhodamine B assay; details: read-out: Activity
# [10] = Growth inhibition of human NCI-ADR-RES cells by sulforhodamine B assay
# SW-620 [11] = assay: Growth inhibition of human SW620 cells assessed as cell growth at 10^-6 M by sulforhodamine B assay; details: read-out: Activity
# BT-549 [12] = assay: Growth inhibition of human BT549 cells by sulforhodamine B assay
# [13] = Growth inhibition of human NCI-ADR-RES cells assessed as cell growth at 10^-7 M by sulforhodamine B assay; details: read-out: Activity
# Malme-3M = assay: Growth inhibition of human MALME-3M cells assessed as cell growth at 10^-4 M by sulforhodamine B assay; details: read-out: Activity
# SK-MEL-2 [14] = assay: Growth inhibition of human SK-MEL-2 cells assessed as cell growth at 10^-7 M by sulforhodamine B assay; details: read-out: Activity
# HT-29 = assay: Growth inhibition of human HT-29 cells by sulforhodamine B assay
# LOX IMVI [15] = assay: Growth inhibition of human LOXIMVI cells assessed as cell growth at 10^-8 M by sulforhodamine B assay; details: read-out: Activity
# A498 = assay: Growth inhibition of human A498 cells assessed as cell growth at 10^-8 M by sulforhodamine B assay; details: read-out: Activity
# MDA-MB-435 [16] = assay: Growth inhibition of human MDA-MB-435 cells assessed as cell growth at 10^-8 M by sulforhodamine B assay; details: read-out: Activity
# SK-MEL-2 [17] = assay: Growth inhibition of human SK-MEL-2 cells assessed as cell growth at 10^-6 M by sulforhodamine B assay; details: read-out: Activity
# OVCAR-5 = assay: Growth inhibition of human OVCAR5 cells by sulforhodamine B assay
# M14 = assay: Growth inhibition of human M14 cells assessed as cell growth at 10^-8 M by sulforhodamine B assay; details: read-out: Activity
# SW-620 [18] = assay: Growth inhibition of human SW620 cells by sulforhodamine B assay
# OVCAR-8 = assay: Growth inhibition of human OVCAR8 cells assessed as cell growth at 10^-4 M by sulforhodamine B assay; details: read-out: Activity
# SR = assay: Growth inhibition of human SR cells assessed as cell growth at 10^-7 M by sulforhodamine B assay; details: read-out: Activity
# [19] = read-out: LC50 (the source's name)
# [20] = read-out: pLC50 (the source's name) (converted)
compound,measurement,setting,value
CC(C)=CC(=O)O[C@@H]1CC(C)(C)C[C@H]2C3=CC[C@@H]4[C@@]5(C)CCC(=O)C(C)(C)[C@@H]5CC[C@@]4(C)[C@]3(C)CC[C@@]12C(=O)O,growth at 1 µM,[1],85%
same,growth at 0.1 µM,NCI-H322M [2],90%
same,growth at 0.01 µM,HOP-92,97%
same,growth at 0.01 µM,T47D,103%
same,GI50,CAKI-1; read-out: GI50,3.84 µM
same,CC50,CAKI-1; [19],> 100 µM
same,TGI,CAKI-1; read-out: TGI,84.8 µM
same,GI50,CAKI-1; read-out: pGI50 (converted),3.8 µM
same,CC50,CAKI-1; [20],> 100 µM
same,TGI,CAKI-1; read-out: pTGI (converted),85.1 µM
same,GI50,MDA-MB-468 [3]; read-out: GI50,2.27 µM
same,CC50,MDA-MB-468 [3]; [19],> 100 µM
same,TGI,MDA-MB-468 [3]; read-out: TGI,13.7 µM
same,GI50,MDA-MB-468 [3]; read-out: pGI50 (converted),2.29 µM
same,CC50,MDA-MB-468 [3]; [20],> 100 µM
same,TGI,MDA-MB-468 [3]; read-out: pTGI (converted),13.8 µM
same,GI50,ACHN; read-out: GI50,2.99 µM
same,CC50,ACHN; [19],> 100 µM
same,TGI,ACHN; read-out: TGI,27.9 µM
same,GI50,ACHN; read-out: pGI50 (converted),3.02 µM
same,CC50,ACHN; [20],> 100 µM
same,TGI,ACHN; read-out: pTGI (converted),28.2 µM
same,growth at 1 µM,OVCAR-3,84%
same,growth at 1 µM,SK-MEL-28,103%
same,growth at 100 µM,UO-31,-13%
same,growth at 100 µM,SW-620 [4],-22%
same,GI50,786-0; read-out: GI50,3.69 µM
same,CC50,786-0; [19],> 100 µM
same,TGI,786-0; read-out: TGI,20.2 µM
same,GI50,786-0; read-out: pGI50 (converted),3.72 µM
same,CC50,786-0; [20],> 100 µM
same,TGI,786-0; read-out: pTGI (converted),20 µM
same,growth at 0.1 µM,PC-3,86%
same,growth at 100 µM,COLO 205,-76%
same,GI50,NCI-H322M [5]; read-out: GI50,2.87 µM
same,LC50 (50% lethal concentration),NCI-H322M [5]; read-out: LC50,> 100 µM
same,TGI,NCI-H322M [5]; read-out: TGI,19.9 µM
same,GI50,NCI-H322M [5]; read-out: pGI50 (converted),2.88 µM
same,LC50 (50% lethal concentration),NCI-H322M [5]; read-out: pLC50 (converted),> 100 µM
same,TGI,NCI-H322M [5]; read-out: pTGI (converted),20 µM
same,growth at 0.1 µM,MDA-MB-468 [6],89%
same,growth at 0.1 µM,BT-549 [7],109%
same,growth at 0.1 µM,MDA-MB-435 [8],98%
same,growth at 100 µM,SF-539,-50%
same,growth at 1 µM,A549,46%
same,growth at 100 µM,LOX IMVI [9],-47%
same,growth at 0.01 µM,KM12,101%
same,GI50,[10]; read-out: GI50,3.75 µM
same,CC50,[10]; [19],> 100 µM
same,TGI,[10]; read-out: TGI,> 100 µM
same,GI50,[10]; read-out: pGI50 (converted),3.72 µM
same,CC50,[10]; [20],> 100 µM
same,TGI,[10]; read-out: pTGI (converted),> 100 µM
same,growth at 1 µM,SW-620 [11],83%
same,GI50,BT-549 [12]; read-out: GI50,4.79 µM
same,CC50,BT-549 [12]; [19],> 100 µM
same,TGI,BT-549 [12]; read-out: TGI,25 µM
same,GI50,BT-549 [12]; read-out: pGI50 (converted),4.79 µM
same,CC50,BT-549 [12]; [20],> 100 µM
same,TGI,BT-549 [12]; read-out: pTGI (converted),25.1 µM
same,growth at 0.1 µM,[13],95%
same,growth at 100 µM,Malme-3M,-5%
same,growth at 0.1 µM,SK-MEL-2 [14],94%
same,GI50,HT-29; read-out: GI50,3.94 µM
same,LC50 (50% cell kill),HT-29; read-out: LC50,> 100 µM
same,TGI,HT-29; read-out: TGI,32.3 µM
same,GI50,HT-29; read-out: pGI50 (converted),3.98 µM
same,LC50 (50% cell kill),HT-29; read-out: pLC50 (converted),> 100 µM
same,TGI,HT-29; read-out: pTGI (converted),32.4 µM
same,growth at 0.01 µM,LOX IMVI [15],98%
same,growth at 0.01 µM,A498,86%
same,growth at 0.01 µM,MDA-MB-435 [16],99%
same,growth at 1 µM,SK-MEL-2 [17],85%
same,GI50,OVCAR-5; read-out: GI50,6.53 µM
same,CC50,OVCAR-5; [19],> 100 µM
same,TGI,OVCAR-5; read-out: TGI,32.7 µM
same,GI50,OVCAR-5; read-out: pGI50 (converted),6.61 µM
same,CC50,OVCAR-5; [20],> 100 µM
same,TGI,OVCAR-5; read-out: pTGI (converted),32.4 µM
same,growth at 0.01 µM,M14,98%
same,GI50,SW-620 [18]; read-out: GI50,4 µM
same,CC50,SW-620 [18]; [19],> 100 µM
same,TGI,SW-620 [18]; read-out: TGI,36.1 µM
same,GI50,SW-620 [18]; read-out: pGI50 (converted),3.98 µM
same,CC50,SW-620 [18]; [20],> 100 µM
same,TGI,SW-620 [18]; read-out: pTGI (converted),36.3 µM
same,growth at 100 µM,OVCAR-8,11%
same,growth at 0.1 µM,SR,99%
